In US20210276978A1, “INHIBITORS OF HISTONE DEACETYLASE” (Alkermes, Inc., priority 2018, published 2021):
pIC50: −log10 of the molar value.

What was measured:
Full length Human HDAC2 = biological target: T1, Full length Human HDAC2 (Homo sapiens, UniProt Q92769); test: HDAC2 enzymatic assay (deacetylation of FAM-labeled peptide substrate, microfluidic electrophoresis); type: biochemical; details: 1 uM substrate peptide
T1 construct: Full length Human HDAC2 with; FLAG (C); host or cells: baculovirus expression system
Description: (§1) HDAC2 and HDAC1 Enzymatic Assay (HDAC2 and HDAC1 IC50 Data)
(§2) The following describes an assay protocol for measuring the deacetylation of a peptide substrate by HDAC2 or HDAC1.
(§3) HDAC protein composition and respective substrate peptides are summarized below.
(§4) HDAC reactions are assembled in 384 well plates (Greiner) in a total volume of 20 µL as following:
(§5) HDAC proteins are pre-diluted in the assay buffer comprising: 100 mM HEPES, pH 7.5, 0.1% BSA, 0.01% Triton X-100, 25 mM KCl and dispensed into 384 well plate (10 uL per well).
(§6) Test compounds are serially pre-diluted in DMSO and added to the protein samples by acoustic dispensing (Labcyte Echo). Concentration of DMSO is equalized to 1% in all samples.
(§7) Control samples (0%-inhibition in the absence of inhibitor, DMSO only) and 100%-inhibition (in the absence of enzyme) are assembled in replicates of four and used to calculate the %-inhibition in the presence of compounds.
(§8) At this step compounds can be pre-incubated with enzyme if desired.
(§9) The reactions are initiated by addition of 10 uL of the FAM-labeled substrate peptide pre-diluted in the same assay buffer. Final concentration of substrate peptide is 1 uM (HDAC1-2). The reactions are allowed to proceed at room temperature. Following incubation, the reactions are quenched by addition of 50 µL of termination buffer (100 mM HEPES, pH7.5, 0.01% Triton X-100, 0.1% SDS). Terminated plates are analyzed on a microfluidic electrophoresis instrument (Caliper LabChip® 3000, Caliper Life Sciences/Perkin Elmer) which enables electrophoretic separation of de-acetylated product from acetylated substrate. A change in the relative intensity of the peptide substrate and product is the parameter measured. Activity in each test sample is determined as the product to sum ratio (PSR): P/(S+P), where P is the peak height of the product, and S is the peak height of the substrate. Percent inhibition (Pinh) is determined using the following equation: Pinh=(PSR0% inh−PSRcompound)/(PSR0% inh−PSR100% inh)*100, in which: PSRcompound is the product/sum ratio in the presence of compound, PSR0% inh is the product/sum ratio in the absence of compound and the PSR100% inh is the product/sum ratio in the absence of the enzyme. To determine IC50 of compounds (50%-inhibition) the %-inh data (Pinh versus compound concentration) are fit by a 4 parameter sigmoid dose-response model using XLfit software (IDBS).
(§10) In the table, “A” indicates a IC50 value of less than 0.5 “B” a IC50 value from 0.5 μM to 1.0 μM; “C” a IC50 value of greater than 1.0 μM and less than or equal to 2.0 μM; and “D” indicates an IC50 value of greater than 2.0 NT=Not Tested.

Full length Human HDAC1 = biological target: T2, Full length Human HDAC1 (Homo sapiens, UniProt Q13547); test: HDAC1 enzymatic assay (deacetylation of FAM-labeled peptide substrate, microfluidic electrophoresis); type: biochemical; details: 1 uM substrate peptide
T2 construct: Full length Human HDAC1 with; His (C); FLAG (C); host or cells: baculovirus expression system
Description: as §1, §2, §3, §4, §5, §6, §7, §8, §9, §10

HDAC2 = biological target: T3, HDAC2 (Homo sapiens, UniProt Q92769); test: HDAC2 enzymatic inhibition assay in SH-SY5Y cell lysate with an exogenous substrate (HDAC-Glo 2); type: cell-based; details: SH-SY5Y cells
T3 construct: host or cells: SH-SY5Y cells
Description: HDAC2 Enzymatic Inhibition Assay in SH-SY5Y Cell Lysate with an Exogenous Substrate
SH-SY5Y cells (Sigma) were cultured in Eagle's Modified Essential Medium supplemented with 10% fetal bovine serum and pen/strep. Twenty-four hours prior to compound dosing 20 uL of cells were plated in white 384 well plates at a density of 1,500 cells/well. Compounds were serially diluted in neat DMSO and then diluted 1:100 v/v into media without FBS and mixed. Media was removed from the plated cells and the diluted compounds in serum free media (1% v/v final DMSO) were added and incubated at 37.0 for five hours. Ten uL of HDAC-Glo 2 reagent with 0.1% Triton X-100 was then added, the plate was mixed and allowed to develop at room temperature for 100 minutes. Plates were then read with a Spectramax LMax luminometer employing a 0.4 s integration time. Dose response curves were constructed with normalized data where CI-994 at 100 uM was defined as 100% inhibition and DMSO alone as 0% inhibition.
In the table, “A” indicates a IC50 value of less than 0.5 μM; “B” a IC50 value from 0.5 μM to 1.0 μM; “C” a IC50 value of greater than 1.0 μM and less than or equal to 2.0 μM; and “D” indicates an IC50 value of greater than 2.0 μM. NT=Not Tested.

[1] = five hours incubation, HDAC-Glo 2 reagent, class symbols
[2] = HDAC-Glo 2, numeric values, Table 4

T1 sequence (Q92769 whole entry): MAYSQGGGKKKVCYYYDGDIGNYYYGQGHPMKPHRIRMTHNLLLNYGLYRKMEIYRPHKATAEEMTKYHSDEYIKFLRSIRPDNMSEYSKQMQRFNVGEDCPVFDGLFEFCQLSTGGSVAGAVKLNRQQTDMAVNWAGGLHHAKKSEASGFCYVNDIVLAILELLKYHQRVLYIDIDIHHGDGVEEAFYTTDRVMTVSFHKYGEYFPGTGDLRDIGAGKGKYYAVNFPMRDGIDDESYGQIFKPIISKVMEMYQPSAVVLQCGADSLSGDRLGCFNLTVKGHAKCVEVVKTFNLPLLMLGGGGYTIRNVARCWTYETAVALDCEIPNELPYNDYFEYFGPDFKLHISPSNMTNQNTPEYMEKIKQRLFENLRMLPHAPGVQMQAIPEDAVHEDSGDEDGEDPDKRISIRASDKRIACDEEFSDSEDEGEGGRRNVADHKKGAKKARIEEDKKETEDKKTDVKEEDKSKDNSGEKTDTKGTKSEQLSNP
T3 sequence (Q92769 whole entry): as above
T2 sequence (Q13547 whole entry): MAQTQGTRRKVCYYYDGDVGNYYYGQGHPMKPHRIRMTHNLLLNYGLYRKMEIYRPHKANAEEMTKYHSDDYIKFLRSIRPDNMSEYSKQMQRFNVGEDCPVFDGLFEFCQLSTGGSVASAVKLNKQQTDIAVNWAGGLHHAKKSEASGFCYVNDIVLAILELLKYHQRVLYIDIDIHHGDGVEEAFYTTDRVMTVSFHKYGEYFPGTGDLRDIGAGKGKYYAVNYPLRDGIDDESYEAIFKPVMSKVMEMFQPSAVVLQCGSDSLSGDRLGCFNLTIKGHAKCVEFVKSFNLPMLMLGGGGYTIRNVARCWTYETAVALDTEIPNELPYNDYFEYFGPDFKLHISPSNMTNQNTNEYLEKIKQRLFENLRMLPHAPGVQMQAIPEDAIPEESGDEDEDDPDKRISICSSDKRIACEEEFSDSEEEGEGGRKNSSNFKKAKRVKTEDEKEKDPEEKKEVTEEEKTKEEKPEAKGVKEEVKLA

pIC50 (Full length Human HDAC2)	pIC50 (Full length Human HDAC1)	pIC50 (HDAC2; [1])	pIC50 (HDAC2; [2])	SMILES
5.70 to 6.00	6.00	< 5.70	–	Cc1ccnc(C2CCN(C(=O)Nc3nc(-c4ccc(F)cc4)ccc3N)C2)n1 (single isomer, unassigned) [Compound 50]
5.70 to 6.00	6.00 to 6.30	< 5.70	–	Nc1ccc(-c2ccc(F)cc2)nc1NC(=O)N1CCC(F)(c2ncc(F)cn2)C1 (single isomer, unassigned) [Compound 52]
6.00 to 6.30	> 6.30	6.00 to 6.30	–	Cn1ccnc1CC1CCN(C(=O)Nc2nc(-c3ccc(F)cc3F)ccc2N)C1 (stereo not shown) [Compound 36]
< 5.70	< 5.70	< 5.70	–	Nc1ccc(-c2ccc(F)cc2F)nc1NC(=O)N1CCC(c2ccncc2)C1 (stereo not shown) [Compound 3]
6.00 to 6.30	6.00 to 6.30	5.70 to 6.00	–	Nc1ccc(-c2ccc(F)cc2)nc1NC(=O)N1CCC(F)(c2ncccn2)C1 (single isomer, unassigned) [Compound 54]
< 5.70	5.70 to 6.00	< 5.70	–	Nc1ccc(-c2ccc(F)cc2F)nc1NC(=O)N1CCC(c2cccnc2)C1 (stereo not shown) [Compound 2]
> 6.30	> 6.30	6.00 to 6.30	–	Nc1ccc(-c2ccc(F)cc2F)nc1NC(=O)N1CCC(F)(c2ncccn2)C1 (single isomer, unassigned) [Compound 29E1]
5.70 to 6.00	6.00 to 6.30	5.70 to 6.00	–	Nc1ccc(-c2ccccc2F)nc1NC(=O)N1CCC(c2ncc(F)cn2)C1 (stereo not shown) [Compound 21]
5.70 to 6.00	5.70 to 6.00	5.70 to 6.00	–	Nc1ccc(-c2ccc(F)cc2F)nc1NC(=O)N1CCC(F)(c2ncccn2)C1 (single isomer, unassigned) [Compound 29E2]
6.00 to 6.30	6.00 to 6.30	6.00 to 6.30	6.26	Cc1cnc(C2CCN(C(=O)Nc3nc(-c4ccc(F)cc4F)ccc3N)C2)cn1 (stereo not shown) [Compound 18]
6.00 to 6.30	> 6.30	6.00 to 6.30	6.11	Nc1ccc(-c2ccc(F)cc2F)nc1NC(=O)N1CCC(F)(c2ncccn2)C1 (stereo not shown) [Compound 29]
> 6.30	> 6.30	6.00 to 6.30	–	Nc1ccc(-c2ccc(F)cc2)nc1NC(=O)N1CCC(c2ncc(F)cn2)C1 (single isomer, unassigned) [Compound 20E2]
5.70 to 6.00	6.00 to 6.30	< 5.70	–	Nc1ccc(-c2ccc(F)cc2F)nc1NC(=O)N1CCC(c2ccccc2)C1 (stereo not shown) [Compound 4]
5.70 to 6.00	6.00 to 6.30	5.70 to 6.00	–	Nc1ccc(-c2ccccc2F)nc1NC(=O)N1CCC(c2ncccn2)C1 (stereo not shown) [Compound 48]
> 6.30	6.00 to 6.30	5.70 to 6.00	–	Nc1ccc(-c2ccc(F)cc2)nc1NC(=O)N1CCC(c2ncccn2)C1 (single isomer, unassigned) [Compound 19E1]
< 5.70	5.70 to 6.00	5.70 to 6.00	–	Nc1ccc(-c2ccc(F)s2)nc1NC(=O)N1CCC(c2ncc(F)cn2)C1 (single isomer, unassigned) [Compound 43]
6.00 to 6.30	> 6.30	6.00 to 6.30	–	Nc1ccc(-c2ccc(F)cc2F)nc1NC(=O)N1CCC(c2ncc(F)cn2)C1 (single isomer, unassigned) [Compound 14E1]
6.00 to 6.30	> 6.30	5.70 to 6.00	–	Cc1ccnc(C2CCN(C(=O)Nc3nc(-c4ccc(F)cc4)ccc3N)C2)n1 (single isomer, unassigned) [Compound 51]
6.00 to 6.30	> 6.30	6.00 to 6.30	–	Nc1ccc(-c2ccc(F)cc2)nc1NC(=O)N1CCC(F)(c2ncc(F)cn2)C1 (single isomer, unassigned) [Compound 53]
> 6.30	> 6.30	6.00 to 6.30	–	Nc1ccc(-c2ccc(F)s2)nc1NC(=O)N1CCC(c2ncccn2)C1 (single isomer, unassigned) [Compound 40]
< 5.70	< 5.70	< 5.70	–	Nc1ccc(-c2ccc(F)cc2F)nc1NC(=O)N1CCC(Oc2ncccn2)C1 (stereo not shown) [Compound 23]
5.70 to 6.00	5.70 to 6.00	5.70 to 6.00	5.85	Nc1ccc(-c2ccc(F)cc2F)nc1NC(=O)N1CCC(Cc2ncccn2)C1 (stereo not shown) [Compound 24]
5.70 to 6.00	5.70 to 6.00	6.00 to 6.30	6.27	Nc1ccc(-c2ccc(F)cc2F)nc1NC(=O)N1CCC(Cc2cccnn2)C1 (stereo not shown) [Compound 26]
